These results are taken from patent US8778984B2, “Aldosterone synthase inhibitor” (Eli Lilly and Company, priority 2011, dated 2014).

For assay [1], the target named is T1, human cyp11B2 (Homo sapiens, UniProt P19099).
T1 construct: expressed in transfected cells
T1 sequence (P19099 25-503): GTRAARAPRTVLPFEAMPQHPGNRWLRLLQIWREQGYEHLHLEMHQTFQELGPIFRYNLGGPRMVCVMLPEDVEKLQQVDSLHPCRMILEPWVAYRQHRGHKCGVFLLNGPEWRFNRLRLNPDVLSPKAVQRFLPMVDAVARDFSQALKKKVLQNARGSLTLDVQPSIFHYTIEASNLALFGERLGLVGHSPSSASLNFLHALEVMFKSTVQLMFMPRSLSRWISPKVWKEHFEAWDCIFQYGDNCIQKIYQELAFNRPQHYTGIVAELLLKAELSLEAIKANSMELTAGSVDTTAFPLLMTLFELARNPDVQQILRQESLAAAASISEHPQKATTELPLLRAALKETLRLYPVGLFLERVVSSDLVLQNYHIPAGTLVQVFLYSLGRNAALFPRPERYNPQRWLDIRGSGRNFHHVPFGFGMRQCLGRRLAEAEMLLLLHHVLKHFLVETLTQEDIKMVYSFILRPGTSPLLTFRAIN
Nature of the assay: Aldosterone Synthase Inhibitor Assay (V79-hcyp11B2 cells, aldosterone by LC-MS). The conditions noted are these: aldosterone production from 1 μM DOC, 24 hours incubation, geometric means, separate experiments. Type of assay: cell-based. On the procedure: Chinese hamster fibroblast cells (V79, ATCC™) constitutively expressing human cyp11B2 are established by transfection with a mammalian expression vector harboring the human cyp11B2 cDNA under CMV promoter and a neomycin antibiotic resistant gene for selection in mammalian cells. V79 cells are transfected in T225 cm^2 flasks with the lipofectamine transfection reagent and the human cyp11B2 cDNA. Positive clones are selected with the selection antibiotic geneticin at 1 mg/mL.
Aldosterone production from transfected cells is initiated by the addition of 1 μM DOC in the medium. After 24 hours incubation, 100 μL cell culture medium is collected and aldosterone concentration in the medium is determined using a liquid chromatography-mass spectrometry (LC-MS) method. […] The wells are then extracted 3× with EtOAc (150 μl) using the FX, combining the organic layers in a new 96-well plate. The solvent is dried in a GeneVac HT-4 or under nitrogen. […] A 25 μl aliquot of the sample is injected and a gradient from 20-100% ACN+0.1% formic acid (FA) in 1 min is initiated. Aldosterone elutes at 0.7 min. Starting conditions are held for 1 minute to re-equilibrate the column. An ABI 4000 tandem mass spectrometer is used for MS/MS analysis in the negative ion mode. […] The area under the peak from each transition is added together to comprise the signal from aldosterone and IS, respectively. […] The detection limit for aldosterone is […].
DOC and various concentrations of test compounds in 1:3 dilution increments are added to the cell culture medium. After 24 hours incubation, 100 μl of cell medium are collected and aldosterone concentration determined as described above. Data are fit to a 4 parameter-fit logistics curve to determine IC50 values.

Assay [2] relates to aldosterone production in rats. Nature of the assay: Inhibition of Aldosterone Synthase in Rats (rat sodium-deficiency diet model). It is filed as in vivo. The conditions noted are these: Example 1 10.0 mg/kg, Example 49 30.0 mg/kg, Fadrozole 1.0 mg/kg. As for the experimental part:
The effect of compounds on aldosterone production in rats is assessed using the rat sodium-deficiency diet model. […] At 3 hours post dose rats are bled (˜0.5 mL) from the ocular orbit under isoflurane anesthesia. At 6 hours post-dose the rats are euthanized with CO2 and bled by cardiac puncture. Blood samples are clotted at least 30 minutes and serum is prepared and stored at approximately −80° C. until assayed. Aldosterone, steroids, and compound exposure are analyzed by mass spectroscopy.

In assay [3] the test system is testosterone production from H295R cells. The assay can be described thus: cells. Type of assay: cell-based, human. The conditions noted are these: Homo sapiens, NCI-H295R, 48 h, read-out: Testosterone IC50 (μM). On the procedure:
(§1) The human adrenocarcinoma cell line H295R is used to monitor the production of testosterone and estradiol in vitro. […] Various concentrations of test compounds in 1:3 dilution increments are added to the cell culture medium. After incubation for 48 hours, 100 μl culture medium is collected and d5-estradiol and d3-testosterone are added as ISs for estradiol and testosterone respectively.
(§2) An equal volume of sodium carbonate/sodium bicarbonate buffer (0.5 mol/L, pH 9.4) is added to the samples followed by freshly prepared dansyl chloride solution (50 μl, 20 mg/mL). Samples are mixed and incubated for 60 min at 60° C. The samples are then extracted 3× with EtOAc ([…]) using the FX, combining the organic layers in a new deep-well 96-well plate. The solvent is then dried in a GeneVac HT-4 or under nitrogen. The FX is used to reconstitute the samples in 50% MeOH/water ([…]) and the plates are heat-sealed.
(§3) A 40 μl aliquot of the sample is injected and a gradient from 20-100% MeOH in 0.95 min is initiated. An ABI QTRAP 4000 tandem mass spectrometer is used for MS/MS analysis in the positive ion mode. […] These peaks are separately integrated to give the peak areas. The area ratios of testosterone/IS and estradiol/IS are used to determine testosterone and estradiol concentrations by comparison to their respective standard curves. The detection limits for testosterone and estradiol are 0.1 ng/mL and 0.01 ng/mL respectively.

The subject of assay [4] is estradiol production from H295R cells. The assay can be described thus: cells. The note with it: Homo sapiens, NCI-H295R, 48 h, read-out: Estradiol IC50 (μM). It is filed as cell-based, human. As for the experimental part: as §1, §2, §3

On to `FC(F)(F)c1ccc(C2CCc3[nH]ncc32)cc1` (racemic) [Example 18, (+/−)-4-(4-Trifluoro-methylphenyl)-1,4,5,6-tetrahydrocyclopenta[c] pyrazole], for which half-maximal inhibition in assay [1] (IC50) was put at 157 nM.

For `N#Cc1ccc(C2CCCc3[nH]ncc32)cc1F` (racemic) [Example 59, (+/−)-2-Fluoro-4-(4,5,6,7-tetrahydro-1H-indazol-4-yl)benzonitrile], in assay [1], the IC50 came to 5 nM.

In the case of `Cc1ccc(C2CCCc3n[nH]cc32)cc1` (single isomer, unassigned; isomer 2) [Example 54, 4-(p-Tolyl)-4,5,6,7-tetrahydro-2H-indazole-isomer 2], the IC50 in assay [1] was 154 nM.

On to `N#Cc1ccc(C2CCCc3cncn32)cc1` (stereo not drawn) [Fadrozole, fadrozole, reference compound], for which the “% Inhibition 3 hrs” value in assay [2] (inhibition of aldosterone vs vehicle, 3 hrs post oral dose) came out at 64.4%. Besides, the “% Inhibition 6 hrs” value in assay [2] (inhibition of aldosterone vs vehicle, 6 hrs post oral dose) is 55.2%. Further, in assay [2] (serum, 3 hrs post oral dose, rat Na-deficient diet model), the “Aldosterone (pg/mL) 3 hrs” value came out at 669.8 pg/mL. The “Aldosterone (pg/mL) 6 hrs” value in assay [2] (serum, 6 hrs post oral dose, rat Na-deficient diet model) is given as 1144.2 pg/mL.

On to `N#Cc1ccc([C@H]2CCc3cncn32)c(F)c1` [Novartis LCI699, reference compound], for which the IC50 in assay [3] was 5.01 µM; in assay [4], 0.123 µM.
